Columns and labels:
Assay type in all cases: functional, Mus musculus
B16 [1] = test: Effect of compound on the body weight of mice bearing the B16 melanoma at a daily dose of 12.5 mg/kg
B16 [2] = test: Effect of compound on the survival time of mice bearing the B16 melanoma at a daily dose (mg/kg) of 50
B16 [3] = test: Effect of compound on the survival time of mice bearing the B16 melanoma at a daily dose of 12.5 mg/kg
B16 [4] = test: Effect of compound on the survival time of mice bearing the B16 melanoma at a daily dose of 25 mg/kg
B16 [5] = test: Effect of compound on the body weight of mice bearing the B16 melanoma at a daily dose of 25 mg/kg
B16 [6] = test: Effect of compound on the body weight of mice bearing the B16 melanoma at a daily dose of 50 mg/kg
B16 [7] = test: Effect of compound on the survival time of mice bearing the B16 melanoma at a daily dose of 50 mg/kg
L1210 [8] = test: Effect of compound on the survival time of mice bearing the L1210 leukemia at a daily dose of 12.5-50 mg/kg
L1210 [9] = test: Effect of compound on the body weight of mice bearing the L1210 leukemia at a daily dose of 12.5-50 mg/kg
L1210 [10] = test: Effect of compound on the survival time of mice bearing the L1210 leukemia at a daily dose (mg/kg) of 12.5-50
B16 [11] = test: Effect of compound on the body weight of mice bearing the B16 melanoma at a daily dose of 100 mg/kg
B16 [12] = test: Effect of compound on the survival time of mice bearing the B16 melanoma at a daily dose (mg/kg) of,50
B16 [13] = test: Effect of compound on the survival time of mice bearing the B16 melanoma at a daily dose of 100 mg/kg
B16 [14] = test: Effect of compound on the survival time of mice bearing the B16 melanoma at a daily dose of 150 mg/kg
B16 [15] = test: Effect of compound on the body weight of mice bearing the B16 melanoma at a daily dose of 150 mg/kg

With `COC(=O)SNN(C)S(=O)(=O)c1ccc2ccccc2c1` the Change in weight (B16 [1]) was -0.2%, the T/C (B16 [2]) was 163% and the T/C (B16 [3]) was 123%. For the same compound, the T/C (B16 [4]) was 140%, the Change in weight (B16 [5]) was 1.4% and the Change in weight (B16 [6]) was -4.8%.

`COC(=O)SNN(C)S(=O)(=O)c1ccccc1` gave a Change in weight (B16 [1]) of -5.2%, a T/C (B16 [3]) of 169% and a T/C (B16 [4]) of 183%. For the same compound, the T/C (B16 [7]) was 49%, the Change in weight (B16 [5]) was -13% and the Change in weight (B16 [6]) was -33.4%. It also gave a T/C (L1210 [8]) of 113% and a Change in weight (L1210 [9]) of -10.9%.

Compound `COC(=O)SNN(C)S(=O)(=O)Cc1ccccc1` has a Change in weight (B16 [1]) of -2.5%, a T/C (B16 [2]) of 59% and a T/C (B16 [3]) of 152%. The T/C (B16 [4]) was 157%, the Change in weight (B16 [5]) was -14.8% and the Change in weight (B16 [6]) was -27.4%. For the same compound, the T/C (L1210 [10]) was 100% and the Change in weight (L1210 [9]) was -8%.

`COC(=O)SNN(C)S(=O)(=O)c1ccc(OC)cc1` gave a Change in weight (B16 [1]) of -0.2%, a T/C (B16 [2]) of 177% and a T/C (B16 [3]) of 148%. The T/C (B16 [4]) was 160%, the Change in weight (B16 [5]) was -6.4% and the Change in weight (B16 [6]) was -18.7%. The T/C (L1210 [10]) was 149% and the Change in weight (L1210 [9]) was -6.7%.

In the case of `COC(=O)SNNS(=O)(=O)c1ccc(C)cc1`, the Change in weight (B16 [1]) is reported as 1.6%, the T/C (B16 [2]) is reported as 98% and the T/C (B16 [3]) is reported as 100%. The T/C (B16 [4]) was 113%, the Change in weight (B16 [5]) was 3.7% and the Change in weight (B16 [6]) was -0.4%.

Compound `CN(C)/N=N/c1[nH]cnc1C(N)=O` [DACARBAZINE] has a Change in weight (B16 [11]) of -4.4%, a Change in weight (B16 [1]) of -2.3% and a T/C (B16 [12]) of 135%. For the same compound, the T/C (B16 [13]) was 161%, the T/C (B16 [14]) was 177% and the Change in weight (B16 [15]) was -5.7%.

`COC(=O)SNN(C)S(=O)(=O)c1ccc(Br)cc1` was tested, and the Change in weight (B16 [1]) was -2%, the T/C (B16 [2]) was 160% and the T/C (B16 [3]) was 144%. The T/C (B16 [4]) was 146%, the Change in weight (B16 [5]) was -5.5% and the Change in weight (B16 [6]) was -11.4%. It also gave a T/C (L1210 [10]) of 122% and a Change in weight (L1210 [9]) of -0.2%.

Compound `COC(=O)SNN(C)S(=O)(=O)c1ccc(C)cc1` has a Change in weight (B16 [1]) of 0.7%, a T/C (B16 [2]) of 232% and a T/C (B16 [3]) of 182%. It also gave a T/C (B16 [4]) of 199%, a Change in weight (B16 [5]) of -3.3% and a Change in weight (B16 [6]) of -17.7%. It also gave a T/C (L1210 [10]) of 118% and a Change in weight (L1210 [9]) of -4.2%.

From ChEMBL document CHEMBL1123443, “Synthesis and evaluation of 1-(arylsulfonyl)-2-[(methoxycarbonyl)sulfenyl]-1-methylhydrazines++ + as antineoplastic agents” (1986)
